According to the NIST ThermoML archive (doi:10.1021/acs.jced.8b00578):
± gives the expanded uncertainty stated by the source.

Key:
[1] = Crystal; DSC
[2] = Molar enthalpy of transition or fusion; conditions: Crystal; DSC

Triple point temperature [1]: 494.4 ± 0.81 K
Molar enthalpy of transition or fusion [2]: 6.62 ± 0.311 kcal/mol
Structure (SMILES): O=C(O)c1cc2ccccc2cc1O [3-hydroxy-2-naphthoic acid]
